Results: paper PMC8143069 (Cell Discovery, 2021)
Entries after “also recorded” stand apart in the source; their conditions may differ. Where a name gives a salt, the structure may show the parent alone. Read-outs that look alike come from different tables or passages of the source. Where no end group is shown, it is not given here. [ ]: non-standard residue; d: D form. Lys(Me2) = CN(C)CCCC[C@H](N)C(=O)O

Experiments:
COVID-19 = conditions: cited from earlier work
Caco-2 cells [1] = format: physicochemical, human; conditions: FAM5-tagged peptide, single treatment, Caco-2 culture, over 96 h, fluorescence imaging
ACE2, Caco-2 cells = format: cell-based, human; conditions: Caco-2, FAM5-tagged NACE2i, single treatment, after 8 h and up to 96 h; P < 0.0001 (Fig. 5b)
human recombinant LSD1 [2] = format: biochemical
human recombinant LSD1 [3] = assay: LSD1 demethylation assay with di-methylated ACE2 peptides as substrates; format: biochemical; conditions: for Demethylation of NLS peptides by LSD1 (rank order): LSD1 fluorimetric kit, background subtracted, one-way ANOVA P < 0.0001 (Fig. 4d)
[4] = system: ACE2-SARS-CoV-2 spike protein interaction, Caco-2 cells; format: cell-based, human / SARS-CoV-2
Caco-2 cells [5] = system: Caco-2 cells
Caco-2 cells [6] = system: Caco-2 cells; remark: listed apart in the source
[7] = system: SARS-CoV-2-infected Caco-2 cells; format: cell-based, human
[8] = system: ACE2-IMPα3 colocalization, SARS-CoV-2-infected Caco-2 cells; format: cell-based, human
SARS-CoV-2 [9] = format: cell-based
[10] = system: SARS-CoV-2-infected Caco-2 cells; format: cell-based, human; remark: listed apart in the source
[11] = system: ACE2 (pan-methylation lysine), Caco-2 cells; format: cell-based, human
SARS-CoV-2 [12] = format: cell-based; remark: listed apart in the source
LSD1 = conditions: cited from earlier work
[13] = system: SARS-CoV-2-infected Caco-2 cells; format: cell-based, human / SARS-CoV-2
[14] = system: SARS-CoV-2 spike protein at Caco-2 cell surface; format: cell-based
[15] = system: nuclear LSD1/CoREST complex; conditions: cited from earlier work
[16] = system: T cells in human breast cancer; conditions: cited from earlier work
[17] = system: SARS-CoV-2-S-driven entry, Caco-2 cells; conditions: cited from earlier work
SARS-CoV-2 [18] = conditions: cited from earlier work

In the case of CCN(CCO)CCCC(C)Nc1ccnc2cc(Cl)ccc12 (stereo not shown) [hydroxychloroquine], the “clinical outcome in COVID-19” value (COVID-19) is listed as “lack of effect or even increased harm”.

With “TGIRDRKKKNKARS-(FAM5) [FAM5-tagged NACE2i]” the peptide stability (Caco-2 cells [1]) was “stable over time” and the “nuclear ACE2 expression over time” value (ACE2, Caco-2 cells) was “significantly inhibited nuclear ACE2 expression after 8 h and up to 96 h”.

For C/C(=N\NC(=O)c1cccc(S(=O)(=O)N2CCOCC2)c1)c1cc(Cl)ccc1O [SP2509], the “ACE2 lysine 31 (ACE2me2 peptide) demethylation” value (human recombinant LSD1 [2]; LSD1 incubated with inhibitor 30 min at room temperature, LSD1 fluorimetric kit, 40 s intervals, one-way ANOVA P < 0.0001 (Fig. 2a)) was “showed the highest inhibitory potency of all the LSD1 inhibitors in vitro”.

With TGIRDRK[Lys(Me2)]KNKARS [PEP2] the “Demethylation of NLS peptides by LSD1 (rank order)” value (“Demethylation of NLS peptides” below) (human recombinant LSD1 [3]) was “followed by PEP3, PEP2, and PEP1”.

In the case of TGIRDR[Lys(Me2)]K[Lys(Me2)]NKARS [PEP4], the “Demethylation of NLS peptides” value (human recombinant LSD1 [3]) is reported as “greatest demethylation”.

For O=C(O)c1ccc(CN2CCC(CN[C@@H]3C[C@H]3c3ccccc3)CC2)cc1 [GSK, GSK2879552], the “ACE2/spike interaction at cell surface (PLA)” value [4] was “significantly decreased interaction”, the cell viability (Caco-2 cells [5]; uninfected Caco-2, up to 72 h, n=3 (Fig. S2d)) was over 90% and the cell proliferation (Caco-2 cells [6]) was “neither altered cell proliferation”. The “LSD1, ACE2, and TMPRSS2 transcript” value [7] was “remained unaltered”, the “RIG1, MDA5, and ISG15 mRNA” value [7] was “remained unaltered” and the IMPα3 nuclear expression [8] was “no effect on IMPα3 nuclear expression”. For the same molecule, the “co-localization of ACE2 and IMPα3 (PCC)” value [8] was “minimal effect”, the “viral RNA levels in culture supernatants” value (SARS-CoV-2 [9]) was “negligibly reduced viral RNA levels in culture supernatants” and the “enriched Reactome pathways vs control” value [10] was “downregulated genes enriched in the IFN pathway”. For the same molecule, the “number of differentially expressed genes vs control” value [10] was 73 DEGs, the “ACE2 lysine 31 (ACE2me2 peptide) demethylation” value (human recombinant LSD1 [2]) was “further decreases were observed” and the “association between ACE2 and pan-methylation lysine antibody (PLA)” value [11] was “increased the association between ACE2 and pan-methylation lysine antibody in infected cells”. For the same molecule, the “inhibition of viral RNA in infected cells (comparison)” value (SARS-CoV-2 [12]) was “greatest inhibition of viral RNA in infected cells”, the “viral load, % virus-aligned reads over total reads” value (SARS-CoV-2 [12]) was 1% and the “inhibition of LSD1 catalytic activity (compared with phenelzine)” value (LSD1) was “significantly more potent inhibitor of LSD1 catalytic activity than phenelzine”. For the same molecule, the “SARS-CoV-2 spike protein expression” value [13] was “decreased SARS-CoV-2 spike protein expression”, the “co-localization of ACE2 and SARS-CoV-2 spike protein” value [13] was “significantly reduced the co-localization of ACE2 and SARS-CoV-2 spike protein” and the “spike protein expression at the cell surface” value [14] was “to a greater extent GSK treatment, reduced spike protein expression at the cell surface of infected cells”.

In the case of TGIRDR[Lys(Me2)]KKNKARS [PEP1], the “Demethylation of NLS peptides” value (human recombinant LSD1 [3]) is reported as “followed by PEP3, PEP2, and PEP1”.

In the case of NNCCc1ccccc1 [phenelzine], the cell viability (Caco-2 cells [5]) is reported as over 90%, the cell proliferation (Caco-2 cells [6]) is reported as “neither altered cell proliferation” and the “IFNβ and OASL expression” value [7] is reported as “further increased”. For the same molecule, the “LSD1, ACE2, and TMPRSS2 transcript” value [7] was “remained unaltered”, the “RIG1, MDA5, and ISG15 mRNA” value [7] was “remained unaltered” and the IMPα3 nuclear expression [8] was “no effect on IMPα3 nuclear expression”. For the same molecule, the “co-localization of ACE2 and IMPα3 (PCC)” value [8] was “minimal effect”, the “disruption of nuclear LSD1/CoREST complex” value [15] was “can disrupt the nuclear LSD1/CoREST complex” and the “viral RNA levels in culture supernatants” value (SARS-CoV-2 [9]) was “negligibly reduced viral RNA levels in culture supernatants”. For the same molecule, the “DUSP1, DUSP6, DUPS8 expression” value [10] was “highly upregulated”, the IRF7 gene expression [10] was “upregulation of IRF7 gene expression” and the “enriched Reactome pathways vs control” value [10] was “translation and MAPK pathways were enriched; also recorded: post-transcriptional protein phosphorylation and amino acid synthesis and interconversion (transamination) processes were significantly enriched; also recorded: regulates MAPK signaling-related pathways”. For the same molecule, the “number of differentially expressed genes vs control” value [10] was 1059 DEGs, the T cell responses [16] was “epigenetically restore T cell responses in human breast cancer” and the “SARS-CoV-2 spike protein expression” value [13] was “decreased SARS-CoV-2 spike protein expression”. For the same molecule, the “co-localization of ACE2 and SARS-CoV-2 spike protein” value [13] was “significantly reduced the co-localization of ACE2 and SARS-CoV-2 spike protein” and the “spike protein expression at the cell surface” value [14] was “reduced spike protein expression at the cell surface of infected cells”.

In the case of N[C@@H]1C[C@H]1c1ccccc1 (racemic) [tranylcypromine], the “ACE2 lysine 31 (ACE2me2 peptide) demethylation” value (human recombinant LSD1 [2]) is reported as “significantly decreased ACE2 lysine 31 demethylation”.

For CN(C)C(=O)COC(=O)Cc1ccc(OC(=O)c2ccc(NC(=N)N)cc2)cc1 [camostat mesylate], the SARS-CoV-2-S-driven entry [17] is listed as “partially blocked SARS-CoV-2-S-driven entry into Caco-2 cells”.

For ivermectin, the SARS-CoV-2 replication (SARS-CoV-2 [18]) is listed as “inhibits SARS-CoV-2 replication”.

For TGIRDRKK[Lys(Me2)]NKARS [PEP3], the “Demethylation of NLS peptides” value (human recombinant LSD1 [3]) was “followed by PEP3, PEP2, and PEP1”.

For tocilizumab, the “clinical outcome in COVID-19” value (COVID-19) is listed as “mixed results in clinical studies”.

In the case of QAKTFLD[Lys(Me2)]FNHEAED [ACE2me2], the “Demethylation of peptide by LSD1 (substrate)” value (human recombinant LSD1 [3]; ACE2me2 peptide, lysine 31, fluorescence) is reported as “efficiently de-methylated”.

B1: sarilumab (antibody, chains of the INN, looked up, V domains shown)
VH: EVQLVESGGGLVQPGRSLRLSCAASRFTFDDYAMHWVRQAPGKGLEWVSGISWNSGRIGYADSVKGRFTISRDNAENSLFLQMNGLRAEDTALYYCAKGRDSFDIWGQGTMVTVSS
VL: DIQMTQSPSSVSASVGDRVTITCRASQGISSWLAWYQQKPGKAPKLLIYGASSLESGVPSRFSGSGSGTDFTLTISSLQPEDFASYYCQQANSFPYTFGQGTKLEIK
For B1, the “clinical outcome in COVID-19” value (COVID-19) is listed as “mixed results in clinical studies”.
